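Growth conditions: 96-well plates. Treatment: test compound, 48 hours, 5 concentrations. Analysis: linear interpolation between bracketing concentrations; unreached endpoints set to highest concentration. Abbreviation: GI50, concentration required for 50% inhibition of growth.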 Calls of active or inactive are those of the source. No stated cut-off is given here; in the data, active = GI50 up to about 1.1 µM and inactive = higher.
Legend:
Experiment in all cases: NCI anticancer screen, dose series, 48 h
MOLT-4 = system: MOLT-4
OVCAR-8 = system: OVCAR-8
SK-MEL-2 = system: SK-MEL-2
RXF 393 = system: RXF 393
T47D = system: T47D
PC-3 = system: PC-3
U-251 = system: U-251
KM12 = system: KM12
SK-MEL-5 = system: SK-MEL-5
SNB-19 = system: SNB-19
MCF7 = system: MCF7
EKVX = system: EKVX
MDA-MB-435 = system: MDA-MB-435
A549 = system: A549
CAKI-1 = system: CAKI-1
NCI-H460 = system: NCI-H460
MDA-MB-231 = system: MDA-MB-231
SK-OV-3 = system: SK-OV-3
HOP-92 = system: HOP-92
SNB-75 = system: SNB-75

Row | SMILES | GI50 (MOLT-4) | GI50 (OVCAR-8) | GI50 (SK-MEL-2) | GI50 (RXF 393) | GI50 (T47D) | GI50 (PC-3) | GI50 (U-251) | GI50 (KM12) | GI50 (SK-MEL-5) | GI50 (SNB-19) | GI50 (MCF7) | GI50 (EKVX) | GI50 (MDA-MB-435) | GI50 (A549) | GI50 (CAKI-1) | GI50 (NCI-H460) | GI50 (MDA-MB-231) | GI50 (SK-OV-3) | GI50 (HOP-92) | GI50 (SNB-75)
1 | NC(=O)c1csc(-c2ccc(CO)o2)n1 | > 100 µM (inactive) | > 100 µM (inactive) | > 100 µM (inactive) | > 100 µM (inactive) | > 100 µM (inactive) | > 100 µM (inactive) | > 100 µM (inactive) | > 100 µM (inactive) | > 100 µM (inactive) | > 100 µM (inactive) | > 100 µM (inactive) | > 100 µM (inactive) | > 100 µM (inactive) | > 100 µM (inactive) | > 100 µM (inactive) | > 100 µM (inactive) | > 100 µM (inactive) | > 100 µM (inactive) | > 100 µM (inactive) | 
2 | C/C(=N\Nc1nc2ccccc2s1)c1ccc2ccccc2n1 |  | > 100 µM (inactive) | 58.5 µM (inactive) | 26.4 µM (inactive) | 5.36 µM (inactive) | > 100 µM (inactive) | > 100 µM (inactive) | 59.2 µM (inactive) | 30.2 µM (inactive) | > 100 µM (inactive) | 46.3 µM (inactive) | 12.2 µM (inactive) | > 100 µM (inactive) | > 100 µM (inactive) | 55.6 µM (inactive) | > 100 µM (inactive) | 46 µM (inactive) | > 100 µM (inactive) |  | 15.5 µM (inactive)
3 | CCOC(=O)c1c(OCC)[nH]c(=O)c(C(c2ccc(F)cc2)c2c(O)c(C(=O)OCC)c(OCC)[nH]c2=O)c1O | 20.1 µM (inactive) | 14 µM (inactive) | 16.6 µM (inactive) | 4.28 µM (inactive) | 4.44 µM (inactive) | 15.3 µM (inactive) | 15.2 µM (inactive) | 16.9 µM (inactive) | 12.8 µM (inactive) | 17.1 µM (inactive) | 20.4 µM (inactive) | 7.06 µM (inactive) | 17.6 µM (inactive) | 14.8 µM (inactive) | 18.9 µM (inactive) | 16.4 µM (inactive) | 12.6 µM (inactive) |  | 1.46 µM (inactive) | 
4 | CCCCCCCC(CC(=O)NC(CO)C(=O)NC(CO)CC(C)C)OC(=O)CC(CCCCCCC)OC(=O)CC(CCCCCCC)OC1OC(C)C(O)C(OC2OC(C)C(O)C(OC(C)=O)C2O)C1O (stereo not given) | 2.81 µM (inactive) | 13.9 µM (inactive) |  | 8.34 µM (inactive) | 12.9 µM (inactive) | 7.6 µM (inactive) | 4.2 µM (inactive) | 8.99 µM (inactive) | 12.6 µM (inactive) | 6.43 µM (inactive) | 11.9 µM (inactive) | 15.3 µM (inactive) | 11 µM (inactive) | 12.5 µM (inactive) | 15.7 µM (inactive) | 13.3 µM (inactive) | 11.3 µM (inactive) | 17 µM (inactive) | 10.9 µM (inactive) | 5.56 µM (inactive)
5 | COc1cc2oc(-c3ccc4c(c3)OCO4)c(OC)c(=O)c2c(OC)c1O | 45.7 µM (inactive) | 32.8 µM (inactive) |  | > 100 µM (inactive) | 31.5 µM (inactive) | 68.5 µM (inactive) | 38.4 µM (inactive) | > 100 µM (inactive) | 25.4 µM (inactive) | > 100 µM (inactive) | 69.7 µM (inactive) | 37.6 µM (inactive) | 70.3 µM (inactive) | 48.1 µM (inactive) | > 100 µM (inactive) | 64.6 µM (inactive) | 51.6 µM (inactive) | 39.4 µM (inactive) | 13.6 µM (inactive) | 33.2 µM (inactive)
6 | COc1ccccc1/C=C\C(=O)C1COCN1 (stereo not given) | 3.95 µM (inactive) | 14.5 µM (inactive) | 21.3 µM (inactive) | 21 µM (inactive) | 1.45 µM (inactive) | 13.2 µM (inactive) | 11.1 µM (inactive) | 4.39 µM (inactive) | 10.6 µM (inactive) | 13.1 µM (inactive) | 5.53 µM (inactive) | 19.4 µM (inactive) | 6.9 µM (inactive) | 23.1 µM (inactive) | 18.3 µM (inactive) | 30.9 µM (inactive) | 17.6 µM (inactive) | 10.2 µM (inactive) |  | 18.6 µM (inactive)
7 | CC(=O)c1c2c(cc3c1CC1(C3)Cc3cc4c(c(C(=O)O)c3C1)CCCC4)CCCC2.CC(N)c1ccccc1 (stereo not given) | 17.6 µM (inactive) | 28.2 µM (inactive) | 28.1 µM (inactive) |  | 36.6 µM (inactive) | 39.7 µM (inactive) | 26.1 µM (inactive) | 27 µM (inactive) | 22.9 µM (inactive) | 46.5 µM (inactive) | 29.1 µM (inactive) | 26.4 µM (inactive) | 54.8 µM (inactive) | 30.2 µM (inactive) | 33.4 µM (inactive) | 20.2 µM (inactive) | 10 µM (inactive) | 39.5 µM (inactive) | 15.4 µM (inactive) | 39.7 µM (inactive)
8 | Clc1nc(Cl)nc(NC23CC4CC(CC(C4)C2)C3)n1 | 17.9 µM (inactive) | 18.1 µM (inactive) |  | 16.7 µM (inactive) | 17.2 µM (inactive) | > 34.8 µM (inactive) | 15.5 µM (inactive) | 14.9 µM (inactive) | 13.7 µM (inactive) | 21.4 µM (inactive) | 32.1 µM (inactive) | 19.5 µM (inactive) | 16.2 µM (inactive) | 20 µM (inactive) | 8.09 µM (inactive) | 26.3 µM (inactive) | 17.9 µM (inactive) | 32.3 µM (inactive) | 17.2 µM (inactive) | 17.5 µM (inactive)
9 | Cn1c2ccccc2c2c(=S)c3ccccc3ccc21 | 16.2 µM (inactive) | 56.5 µM (inactive) |  | > 100 µM (inactive) | 20.7 µM (inactive) | 59.4 µM (inactive) | 52.8 µM (inactive) | 55.7 µM (inactive) | 44.6 µM (inactive) | > 100 µM (inactive) | 56.8 µM (inactive) | 85.9 µM (inactive) | > 100 µM (inactive) | 71.4 µM (inactive) | > 100 µM (inactive) | > 100 µM (inactive) | > 100 µM (inactive) | > 100 µM (inactive) | > 100 µM (inactive) | 24.6 µM (inactive)
10 | C(=N\NC1=NCCN1)/c1cccc2cc3ccncc3nc12 | 1.69 µM (inactive) | 1.93 µM (inactive) |  | 2.77 µM (inactive) | 2.14 µM (inactive) | 3.67 µM (inactive) | 1.94 µM (inactive) | 5.73 µM (inactive) | 9.51 µM (inactive) | 9.53 µM (inactive) | 3.16 µM (inactive) | 2.86 µM (inactive) | 2.49 µM (inactive) | 6.76 µM (inactive) | 2.84 µM (inactive) | 4.36 µM (inactive) | 2.15 µM (inactive) | 11.3 µM (inactive) | 1 µM (active) | 0.259 µM (active)
11 | CCOC(=O)Nn1cnnc1Cc1ccccc1 | > 100 µM (inactive) | > 100 µM (inactive) | > 100 µM (inactive) |  | > 100 µM (inactive) | > 100 µM (inactive) | > 100 µM (inactive) | > 100 µM (inactive) | > 100 µM (inactive) | > 100 µM (inactive) | > 100 µM (inactive) | > 100 µM (inactive) | > 100 µM (inactive) | > 100 µM (inactive) | > 100 µM (inactive) | > 100 µM (inactive) | > 100 µM (inactive) | > 100 µM (inactive) | > 100 µM (inactive) | 
12 | CC(=O)OCC1OC(n2c3c(cc(C#N)c2=O)CCCCCC3)C(OC(C)=O)C(OC(C)=O)C1OC(C)=O (stereo not given) | > 100 µM (inactive) | > 100 µM (inactive) | > 100 µM (inactive) | > 100 µM (inactive) | 22.7 µM (inactive) | > 100 µM (inactive) | > 100 µM (inactive) | > 100 µM (inactive) | > 100 µM (inactive) | > 100 µM (inactive) | > 100 µM (inactive) |  | > 100 µM (inactive) | > 100 µM (inactive) | > 100 µM (inactive) | > 100 µM (inactive) | > 100 µM (inactive) |  | > 100 µM (inactive) | 18.4 µM (inactive)
13 | CCC(C)(C)C1CCC2c3c([nH]c4ccccc34)C3C(=O)N(c4ccc(OC)cc4)C(=O)C3C2C1 (stereo not given) | 3.62 µM (inactive) | 12.9 µM (inactive) | 16.7 µM (inactive) | 20.4 µM (inactive) | 6.55 µM (inactive) | 9.79 µM (inactive) | 11.5 µM (inactive) | 3.48 µM (inactive) |  | 25.6 µM (inactive) | 3.94 µM (inactive) | 35.4 µM (inactive) | 11 µM (inactive) | 13.4 µM (inactive) | 10.4 µM (inactive) | 7.4 µM (inactive) | 13 µM (inactive) | 31.9 µM (inactive) |  | 16.2 µM (inactive)
14 | Cc1ccc2c(c1)NC(=O)CC(c1ccccc1)=N2 | 28.6 µM (inactive) | > 100 µM (inactive) | > 100 µM (inactive) |  | 70.6 µM (inactive) | 97.1 µM (inactive) | > 100 µM (inactive) | 43.9 µM (inactive) | 40 µM (inactive) | > 100 µM (inactive) | 71.8 µM (inactive) | > 100 µM (inactive) | 31 µM (inactive) | 81.7 µM (inactive) | > 100 µM (inactive) | > 100 µM (inactive) | 23.7 µM (inactive) | > 100 µM (inactive) | > 100 µM (inactive) | 76.7 µM (inactive)
15 | C[C@]12CC[C@@H]3c4ccc(O)cc4CC[C@H]3[C@@H]1CC[C@@H]2OC(=O)CCC1CCCC1 [ESTRADIOL CYPIONATE] | 17.8 µM (inactive) | 16.7 µM (inactive) | 23.2 µM (inactive) | 10.4 µM (inactive) | 14.2 µM (inactive) | 16.6 µM (inactive) | 18.7 µM (inactive) | 26.8 µM (inactive) | 17.5 µM (inactive) | 16.9 µM (inactive) | 17.1 µM (inactive) | 7.45 µM (inactive) | 10 µM (inactive) | 17.8 µM (inactive) | 19.1 µM (inactive) | 18.7 µM (inactive) | 17.5 µM (inactive) | 19.4 µM (inactive) | 23.1 µM (inactive) | 

Reference: ChEMBL document CHEMBL1201862, “PubChem BioAssay data set” (2004)
